Results taken from paper PMC7601681, “Human Serum Albumin Binds Native Insulin and Aggregable Insulin Fragments and Inhibits Their Aggregation” (Biomolecules, 2020).

What was measured:
[1] = Thioflavin T (ThT) fluorescence aggregation assay; format: physicochemical; details: peptide 0.33 mM with HSA 0.33 mM, phosphate buffer pH 6.0, 7 days at 37.2 °C, then ThT for 3 days, λexc 440 nm, 470–600 nm
Experimental: Insulin, peptides 5 and 6, and HSA (final concentration 0.66 mM), as well as each sample of the mixture of insulin, peptides 5 and 6) (0.33 mM) with HSA (0.33 mM) were incubated in phosphate buffer solution, pH 6.0 (2 mL), for 7 days at a temperature of 37.2 °C. Then, 2 mL of a solution of Thioflavin T ([…] in phosphate buffer, pH 6.0) was added to the samples. Incubation continued for another 3 days. During this time, spectroscopic measurements of all samples were performed in the range of 470–600 nm, excitation wavelength 440 nm. The intensity of fluorescence spectra recorded on the first, second, and third days of incubation for all samples. are shown in the Supplementary Material (Figures S3 and S4).
The fluorescence intensity measurements were carried out using a FLUOROMAX-4 system from Horiba Scientific (Edison, NJ, USA), measurement range of 470–600 nm, excitation wavelength 440 nm.

[2] = Congo Red (CR) UV-Vis aggregation assay; format: physicochemical; details: peptide 1.44 mM with HSA 1.44 mM, phosphate buffer pH 7.2, 7 days at 37.2 °C, then CR 45 μM for 3 days, UV-Vis 400–800 nm
Experimental: Insulin, peptides 5 and 6, and HSA (final concentration 2.88 mM), as well as each sample of the mixture of insulin, peptides 5 and 6) (1.44 mM) with HSA (1.44 mM), were incubated in phosphate buffer solution at pH 7.2 (1 mL) for 7 days at a temperature of 37.2 °C. Then, 1 mL of a solution of Congo Red dye (45 μM in phosphate buffer, pH 7.2) was added to each incubated sample. Incubation continued for another 3 days. During this time, spectroscopic measurements of all the samples were performed in the range of 400–800 nm. The UV-Vis spectra recorded on the first, second, and third days of incubation for all samples are shown in the Supplementary Material (Figures S1 and S2).
The UV-Vis measurements were carried out using a Hitachi spectrophotometer (Hitachi, Tokyo, Japan).

[3] = Circular dichroism (CD) after incubation with HSA; format: physicochemical; details: 0.1 mg/mL, phosphate buffer pH 7.2, measured after 30 min, two and four days of incubation at 37 °C, 190–270 nm
Experimental: Samples were prepared by dissolving 1 mg of the analyzed peptide in phosphate buffer pH 7.2 (10 mL), to a final concentration of 0.1 mg/mL All measurements were carried out at room temperature using a quartz cuvette (1 mm path length, Hellma). The experimental settings were as follows: measurements range, 190–270 nm; data pitch, 5 nm; scanning mode, continuous; scanning speed, 100 nm/min; bandwidth, 3 nm; integration time, 1 s.
The CD spectra were recorded using a Jasco J-1500 instrument (Jasco, Cracow, Poland) and quartz cuvettes with 1 mm optical path lengths. The measurements were acquired in the range of 190–270 nm at ambient temperature by taking points every 5 nm, with a scan rate of 100 nm per min, an integration time of 1 s, and a bandwidth of 4 nm. The samples were prepared in phosphate buffer (0.1 M, pH 7.2) with a final concentration of 0.1 mg/mL.
Circular dichroism (CD) spectroscopy can be a very valuable source of information about differences in the secondary structure of peptides and proteins. It has been shown that all α-helical proteins show a strong minimum at 222 nm and 208–210 nm and a strong maximum at 191–193 nm. In the case of β-sheet protein, a single negative band may be observed in the 210–225 nm wavelength range and a strong positive band in the 190–200 nm wavelength range, although their intensities are noticeably lower than those for α-proteins. The CD spectra recorded for buffered solutions of insulin (4) and hot-spot fragments (5), (6) in the presence of HSA as well as for native insulin are presented in Figure 9a,b. The measurements were performed after 30 min (sample 0), and then after two and four days of incubation at 37 °C.

[4] = tested on: albumins; details: cited from earlier work
Source text: Pyrene and its derivatives are very popular fluorescent markers used to study interactions with HSA [49, 50, 51, 52]. Despite the fact that there is differentiated localization of pyrene derivatives in HSA, these systems are commonly applied as fluorescent probes, due to the high sensitivity of their fine vibronic structure to changes in the environment (the Ham effect) and long fluorescence lifetimes. […] A similar trend was also observed for the complex of ...

[5] = target: T1, HSA (Homo sapiens, UniProt P02768); details: probe trapped inside HSA; cited from earlier work
T1 construct: purchased Sigma-Aldrich
T1 sequence (P02768 25-609): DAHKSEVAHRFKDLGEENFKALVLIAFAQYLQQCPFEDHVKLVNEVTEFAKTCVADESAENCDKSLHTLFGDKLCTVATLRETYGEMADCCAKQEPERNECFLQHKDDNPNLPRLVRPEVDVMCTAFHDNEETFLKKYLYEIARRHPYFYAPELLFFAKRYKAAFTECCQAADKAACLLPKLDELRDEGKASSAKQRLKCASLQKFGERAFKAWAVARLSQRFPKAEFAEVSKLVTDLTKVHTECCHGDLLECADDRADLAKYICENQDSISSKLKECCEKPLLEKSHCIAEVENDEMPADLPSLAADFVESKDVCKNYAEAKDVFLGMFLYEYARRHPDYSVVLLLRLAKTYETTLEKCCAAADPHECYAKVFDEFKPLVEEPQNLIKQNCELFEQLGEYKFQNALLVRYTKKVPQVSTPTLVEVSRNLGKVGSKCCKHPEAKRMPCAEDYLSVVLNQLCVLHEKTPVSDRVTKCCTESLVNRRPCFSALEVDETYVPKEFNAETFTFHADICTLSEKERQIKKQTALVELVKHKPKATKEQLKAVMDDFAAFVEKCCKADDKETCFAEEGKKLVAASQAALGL
Source text: The calculated value also confirmed existence of interactions between 2 and HSA with pyrene fragment presented on less polar environment inside protein. […] The binding constants 1.5 ± 0.3 × 10^6 dm^3 ...

[6] = Light microscopy of Congo Red stained aggregates; format: physicochemical; details: CR staining 3 days; for microscopic examination of CR-stained aggregates, in the presence of HSA: peptide 1.44 mM, HSA 0.30 mM, phosphate buffer 0.1 M pH 7.2, 7 days at 37.4 °C; for microscopic examination of CR-stained aggregates, without HSA: phosphate buffer 0.1 M pH 7.2, 7 days at 37 °C
Experimental: Microscopic studies were carried out for samples prepared in phosphate buffer (0.1 M, pH 7.2) incubated for 7 days at 37.4 °C. To 2 mL of H-LYQLENY-OH (5) and H-VEALYL-OH (6) (c = 2.88 mM) solution was added 2 mL of HSA solution (c = 0.60 mM). The final concentration of incubated peptides was equal to c = 1.44 mM, whereas, for plasma protein, it was 0.30 mM. Incubation was also performed for 4 mL of an HSA sample (c = 0.3 mM). After that period, 4 mL of CR solution (c = 45 μM in phosphate buffer, pH 7.2) was added to the all samples, which were incubated for another 3 days at room temperature.
The microscopic assays were performed for samples stained with Congo Red dye. The samples were transferred on a microscopic slide and visualized using a Delta Optical Genetic Pro (Warsaw, Poland) light microscope.

Thioflavin T assay of HSA complexes: fluorescence intensity [1]	microscopic examination of CR-stained aggregates, without HSA [6]	Molecule	Congo Red assay of HSA complexes: absorbance change [2]	secondary structure / amyloid formation in the presence of HSA by CD [3]	microscopic examination of CR-stained aggregates, in the presence of HSA [6]	also measured
		c1cc2ccc3cccc4ccc(c1)c2c34 [Pyrene]				binding constant with albumins ([4]; nonspecific binding, order of magnitude): ~10^4 dm^3 mol^−1
		O=S(=O)(O)c1ccc2ccc3cccc4ccc1c2c34 [PSA, 1-pyrene sulfonic acid]				binding constant, non-specific binding [5]: 3.8 × 10^5 dm^3 mol^−1; binding constant, specific receptor site [5]: 6.5 × 10^6 dm^3 mol^−1
		O=C(O)CCCc1ccc2ccc3cccc4ccc1c2c34 [PBA, 4-(1-pyrene)butyric acid]				affinity for albumin [4]: weak affinity
no increase in fluorescence intensity	typical amyloid fibers	H-LYQLENY-OH [LYQLENY, H-LYQLENY-OH]	no decrease in absorbance typical for amyloid structures	increase in the amount of the α-helix structure	significantly less content of fibers characteristic for amyloid deposits	
no increase in fluorescence intensity	typical amyloid fibers	H-VEALYL-OH [VEALYL, H-VEALYL-OH]	no decrease in absorbance typical for amyloid structures	prevents the formation of amyloid fibrils	significantly less content of fibers characteristic for amyloid deposits	

Molecule	Thioflavin T assay of HSA complexes: fluorescence intensity [1]	microscopic examination of CR-stained aggregates, without HSA [6]	Congo Red assay of HSA complexes: absorbance change [2]	secondary structure / amyloid formation in the presence of HSA by CD [3]	microscopic examination of CR-stained aggregates, in the presence of HSA [6]	also measured
insulin: native human recombinant insulin (Sigma-Aldrich)	no increase in fluorescence intensity		no decrease in absorbance typical for amyloid structures	does not tend to form amyloid fibrils		
